Laboratory results from patent US20100041597A1, “PEPTIDES TARGETED TO PROTEIN KINASE C ISOFORMS AND USES THEREOF” (priority 2005, published 2010).
Where no end group is shown, it is not given here.

Legend:
[1] = tested on: LS180 colon cancer tumours; experiment: LS180 colon cancer tumours in mice, combination with doxorubicin; assay type: in vivo; conditions: mice treated with only doxorubicin (and control cohorts)
Excerpt: Both in vitro and in vivo data support the efficacy of PhGα1 in limiting the effect of multi-drug resistance (MDR) in colorectal drug-resistant tumours when used in combination treatment with chemotherapy. Specifically, studies have shown that establishment of LS180 colon cancer tumours in mice (M1 stage) treated with PhGα1 in combination with an anthracycline chemotherapeutic, doxorubicin, was delayed approximately 100% (p<0.03) versus control cohorts and mice treated with only doxorubicin (28 days compared to 14 days). Results were also observed for tumour transition from the M1 to M2 stage.

PKC-β [2] = experiment: In vitro competition with anti-PKC-β antibody, Protocol A, IMR-32 cells; assay type: binding, human; conditions: for Band Intensity / Inhibition (%) / Relative Intensity (%): PKC-β, IMR-32, Table 6
Description: (§1) Cell lysates from either IMR-32 (human neuroblastoma) cells or C6Cx43 cells (rat glioma transfected cells overexpressing connexin 43) were obtained using standard protocols and the proteins of the lysate were separated by SDS PAGE electrophoresis and electrotransferred onto a nitrocellulose membrane. The membrane was incubated for 30 minutes in blocking buffer (TBST) containing the test peptide at either 5× or 20× the concentrations of the primary antibody. A primary polyclonal antibody specific for PKC-α (Santa Cruz Biotechnology, Inc., CA) was then added (15 μg/ml) and the membrane incubated for a further 45 minutes. Finally, the primary antibody was detected with a secondary antibody conjugated to alkaline phosphatase using standard procedures. The intensity of the band corresponding to PKC-α was assessed by scanning and densitometry using the Gel-Pro software (Media Cybernetics) to obtain relative band intensities (average of 3 replicas). Control assays were conducted as described above except that blocking buffer without peptide was used.
Peptides PRE 1, PRE 2 and PRE 3 (see Table 3) were tested for their ability to interfere with the binding of a PKC-β-specific polyclonal antibody (Santa Cruz Biotechnology, Inc.) to PKC-β using the general protocol described in Example 1. […] It is worth noting in this regard that PKC-α and PKC-β belong to the same sub-group of PKCs (cPKCs).

PKC-β [3] = experiment: In vitro competition with anti-PKC-β antibody, Protocol B, IMR-32 cells; assay type: binding, human
Description: (§2) The ability of the peptides PRE 2 and PRE 3 (see Table 3) to interfere with the binding of a PKC-α-specific polyclonal antibody (Santa Cruz Biotechnology, Inc.) to PKC-α was determined using a modified version of the protocol outlined above in which the test peptide was added directly to the cell extract prior to electrophoresis at a concentration of either 5× or 15× the concentration of the protein applied to each well of the gel for the Western blots (20 μg).
Peptides PRE 2 and PRE 3 (see Table 3) were tested for their ability to interfere with the binding of a PKC-β-specific polyclonal antibody (Santa Cruz Biotechnology, Inc.) to PKC-β using the general protocol described in Example 3.

PKC-ε = experiment: In vitro competition with anti-PKC-ε antibody, Protocol B, IMR-32 cells; assay type: binding, human
Description: as §2
Peptides PRE 2, PRE 3 and PRE 4 (see Table 3) were tested for their ability to interfere with the binding of isoform-specific polyclonal antibodies (Santa Cruz Biotechnology, Inc.) to PKC-ε using the general protocol described in Example 3. Two bands, representing alternate splicing variants of PKC-ε, were identified on the Western blot using this anti-PKC-ε antibody.

PKC-α [4] = molecular target: T1, PKC-α (Homo sapiens, UniProt P17252); experiment: In vitro competition with anti-PKC-α antibody on blotted cell lysate, Protocol A, IMR-32 cells; assay type: binding; set-up: subcellular localisation of endogenous PKC-α in IMR-32 cells; endogenous in cells; host or cells: IMR-32; conditions: Protocol A; for Band Intensity / Inhibition (%) / Relative Intensity (%): IMR-32, Table 4
Description: The ability of the peptides to interfere with the binding of a PKC-α-specific monoclonal antibody to PKC-α was determined using the following protocol.
as §1, with “The membrane was incubated for 30 minutes in blocking buffer (TBST) containing the test peptide at either 5× or 20× the concentrations of the primary antibody.” left out
The results are expressed as relative band intensity and as a percentage of the intensity of the corresponding band in the control assay (“Relative intensity (%)”). “% inhibition” relates to the percentage of the PKC-α band that is inaccessible to the antibody.

PKC-α [5] = molecular target: T1, PKC-α; experiment: In vitro competition with anti-PKC-α antibody, Protocol B (peptide added to cell extract before electrophoresis), IMR-32 cells; assay type: binding; set-up: subcellular localisation of endogenous PKC-α in IMR-32 cells; endogenous in cells; host or cells: IMR-32
Description: Peptides PRE 3 and PRE 4 (see Table 3) were tested for their ability to interfere with the binding of isoform-specific polyclonal antibodies (Santa Cruz Biotechnology, Inc.) to PKC-α, PKC-βI or PKC-βII using the general protocol described in Example 3.

COc1cccc2c1C(=O)c1c(O)c3c(c(O)c1C2=O)C[C@@](O)(C(=O)CO)C[C@@H]3O[C@H]1C[C@H](N)[C@H](O)[C@H](C)O1 [doxorubicin]
time to establishment of LS180 tumours (M1 stage) [1]: 14 days

KDAQNLIGISL-NH2 [PRE 2]
effect on antibody binding to PKC-β (PKC-β [2]): some cross reactivity | Band Intensity (PKC-β [2]; 75 μg): 0.800 | Inhibition (%) (PKC-β [2]; 75 μg): 31.0% | Relative Intensity (%) (PKC-β [2]; 75 μg): 69.0% | Band Intensity (PKC-β [2]; 300 μg): 0.403 | Inhibition (%) (PKC-β [2]; 300 μg): 65.3% | Relative Intensity (%) (PKC-β [2]; 300 μg): 34.7% | effect on antibody binding to PKC-β (PKC-β [3]): some cross reactivity | Band Intensity (PKC-β [3]; 100 μg, PKC-β, IMR-32, Table 8): 0.0322 | Inhibition (%) (PKC-β [3]; 100 μg, PKC-β, IMR-32, Table 8): 54.7% | Relative Intensity (%) (PKC-β [3]; 100 μg, PKC-β, IMR-32, Table 8): 45.3% | effect on antibody binding to PKC-ε (PKC-ε): some cross-reactivity with PKC-ε | Band Intensity (PKC-α [4]; 75 μg peptide): 0.917 | Inhibition (%) (PKC-α [4]; 75 μg peptide): 56.1% | Relative Intensity (%) (PKC-α [4]; 75 μg peptide): 43.9% | Band Intensity (PKC-α [4]; 300 μg peptide): 0.192 | Inhibition (%) (PKC-α [4]; 300 μg peptide): 90.9% | Relative Intensity (%) (PKC-α [4]; 300 μg peptide): 9.1% | effect on antibody binding to PKC-α (PKC-α [4]): mask the antigenic site of PKC-α | effect on antibody binding to PKC-α (PKC-α [5]): effectively interfered with PKC-α antibody binding to PKC-α | Band Intensity (PKC-α [5]; 100 μg, PKC-α, IMR-32, Table 7): 0.0103 | Inhibition (%) (PKC-α [5]; 100 μg, PKC-α, IMR-32, Table 7): 99.9% | Relative Intensity (%) (PKC-α [5]; 100 μg, PKC-α, IMR-32, Table 7): 0.135%
